From patent publication US20090124587A1, “METHODS FOR TREATING CANCER USING 17alpha-HYDROXYLASE/C17,20-LYASE INHIBITORS” (priority 2007, published 2009)
Read-outs that look alike come from different tables or passages of the source.

Test: Food effect PK study, two single oral 1000 mg doses of abiraterone acetate, fed (high fat) vs fasted
Type: in vivo, human
Details: for clearance: read-out: Cl F obs (converted); for Vd/F: read-out: Vz F obs; for concentration at 1.017 h: sample time 1.017; for concentration at 6 h: sample time 6.000; for concentration at 2 h: sample time 2.000; for concentration at 4 h: sample time 4.000; for concentration at 8.033 h: sample time 8.033; for concentration at 24 h: sample time 24.000; for concentration at 48.083 h: sample time 48.083
Method: To measure the amount of abiraterone and abiraterone acetate in the samples, these compounds were extracted from 100 uL human plasma using solid phase extraction (SPE) with cation mixed-mode polymer cartridges. Extracts were evaporated to dryness before reconstitution and analysis. Chromatography was carried out using a Luna™ C5 column (5 μm, 50 mm×2.1 mm id) with a gradient mobile phase consisting of 10 mM ammonium acetate and 2% propan-2-ol in acetonitrile. The flow rate was 0.2 mL/min and the run time 10.5 minutes. Abiraterone and abiraterone acetate were ionized using the electrospray interface in positive ion mode. Detection of analytes was via tandem mass spectrometry (MS/MS) in the multiple reaction monitoring (MRM) mode.
PK modeling was conducted using a non-compartmental model, extra vascular input for plasma with WinNonLin Software®. Pharmacokinetic parameters estimated in the model include:
Based on the above results, the PK parameters for a single dose of 1000 mg/day of abiraterone acetate were further studied in the 3 subjects who were administered the 1000 mg/day dose and in 3 additional subjects. Two single oral doses (1000 mg) of abiraterone acetate were administered separately, one concomitantly with food of high fat content and one in fasting state. The first single dose was administered on day −9 with PK blood samples being taken at 1, 2, 4, 6, 8, 24, 48 and 72 hours post dose. The second single dose was administered on day −3 with PK blood samples being taken at 1, 2, 4, 6, 8, 24 and 48 hours post dose for analysis.

[1] = human, plasma, oral, 1000 mg, Patient 19, 1000 mg, Fasted
[2] = human, plasma, oral, 1000 mg, Patient 19, 1000 mg, Fed
[3] = human, plasma, oral, 1000 mg, Patient 19, Fasted
[4] = human, plasma, oral, 1000 mg, Patient 19, Fed
[5] = human, plasma, oral, 1000 mg, Patient 20, 1000 mg, Fasted
[6] = human, plasma, oral, 1000 mg, Patient 20, 1000 mg, Fed
[7] = human, plasma, oral, 1000 mg, Patient 20, Fasted
[8] = human, plasma, oral, 1000 mg, Patient 20, Fed
[9] = human, plasma, oral, 1000 mg, Patient 21, 1000 mg, Fasted
[10] = human, plasma, oral, 1000 mg, Patient 21, 1000 mg, Fed
[11] = human, plasma, oral, 1000 mg, Patient 21, Fasted
[12] = human, plasma, oral, 1000 mg, Patient 21, Fed
[13] = human, plasma, po, 1000 mg, mean, 1000 mg single oral dose, Fasted
[14] = human, plasma, po, 1000 mg, mean, 1000 mg single oral dose, Fed
[15] = mean, 1000 mg single oral dose, Fasted
[16] = mean, 1000 mg single oral dose, Fed

C[C@]12CC[C@H](O)CC1=CC[C@@H]1[C@@H]2CC[C@]2(C)C(c3cccnc3)=CC[C@@H]12 [Abiraterone]
concentration at 4.033 hr (human, plasma, oral, 1000 mg, Patient 15, Fed, sample time 4.033 hr): 484 nM | concentration at 6.083 hr (human, plasma, oral, 1000 mg, Patient 15, Fed, sample time 6.083 hr): 1120 nM | concentration at 8.067 hr (human, plasma, oral, 1000 mg, Patient 15, Fed, sample time 8.067 hr): 512 nM | concentration at 24.05 hr (human, plasma, oral, 1000 mg, Patient 15, Fed, sample time 24.050 hr): 84.3 nM | concentration at 46.05 hr (human, plasma, oral, 1000 mg, Patient 15, Fed, sample time 46.050 hr): 18.1 nM | clearance [1]: 12200 mL/min | Vd/F [1]: 8490 L | clearance [2]: 4900 mL/min | Vd/F [2]: 4250 L | AUC(0-inf) [3]: 3.91 µM·h | AUC(0-t) [3]: 3.8 µM·h | Cmax [3]: 432 nM | Tmax [3]: 6 h | concentration at 1.05 hr (human, plasma, oral, 1000 mg, Patient 19, Fasted, sample time 1.050 hr): 0 nM | concentration at 2.083 hr (human, plasma, oral, 1000 mg, Patient 19, Fasted, sample time 2.083 hr): 71.9 nM | concentration at 4.017 hr (human, plasma, oral, 1000 mg, Patient 19, Fasted, sample time 4.017 hr): 334 nM | concentration at 6 hr (human, plasma, oral, 1000 mg, Patient 19, Fasted, sample time 6.000 hr): 432 nM | concentration at 8.017 hr (human, plasma, oral, 1000 mg, Patient 19, Fasted, sample time 8.017 hr): 177 nM | concentration at 24.067 hr (human, plasma, oral, 1000 mg, Patient 19, Fasted, sample time 24.067 hr): 21.6 nM | concentration at 48.1 hr (human, plasma, oral, 1000 mg, Patient 19, Fasted, sample time 48.100 hr): 9.1 nM | AUC(0-inf) [4]: 9.73 µM·h | AUC(0-t) [4]: 9.47 µM·h | Cmax [4]: 1020 nM | Tmax [4]: 6.13 h | concentration at 0.967 hr (human, plasma, oral, 1000 mg, Patient 19, Fed, sample time 0.967 hr): 0 nM | concentration at 2.2 hr (human, plasma, oral, 1000 mg, Patient 19, Fed, sample time 2.200 hr): 466 nM | concentration at 3.933 hr (human, plasma, oral, 1000 mg, Patient 19, Fed, sample time 3.933 hr): 973 nM | concentration at 6.133 hr (human, plasma, oral, 1000 mg, Patient 19, Fed, sample time 6.133 hr): 1020 nM | concentration at 8 hr (human, plasma, oral, 1000 mg, Patient 19, Fed, sample time 8.000 hr): 344 nM | concentration at 23.717 hr (human, plasma, oral, 1000 mg, Patient 19, Fed, sample time 23.717 hr): 63.6 nM | concentration at 49.3 hr (human, plasma, oral, 1000 mg, Patient 19, Fed, sample time 49.300 hr): 18 nM | clearance [5]: 3680 mL/min | Vd/F [5]: 4880 L | clearance [6]: 2030 mL/min | Vd/F [6]: 3210 L | AUC(0-inf) [7]: 13 µM·h | AUC(0-t) [7]: 12.1 µM·h | Cmax [7]: 1700 nM | Tmax [7]: 2.27 h | concentration at 1.017 h [7]: 58.5 nM | concentration at 2.267 h (human, plasma, oral, 1000 mg, Patient 20, Fasted, sample time 2.267): 1700 nM | concentration at 3.833 h (human, plasma, oral, 1000 mg, Patient 20, Fasted, sample time 3.833): 1270 nM | concentration at 6 h [7]: 976 nM | concentration at 7.917 h (human, plasma, oral, 1000 mg, Patient 20, Fasted, sample time 7.917): 256 nM | concentration at 24.283 h (human, plasma, oral, 1000 mg, Patient 20, Fasted, sample time 24.283): 118 nM | concentration at 48.417 h (human, plasma, oral, 1000 mg, Patient 20, Fasted, sample time 48.417): 40.8 nM | AUC(0-inf) [8]: 23.5 µM·h | AUC(0-t) [8]: 22.8 µM·h | Cmax [8]: 1580 nM | Tmax [8]: 8.03 h | concentration at 1.017 h [8]: 32.2 nM | concentration at 2 h [8]: 201 nM | concentration at 4 h [8]: 422 nM | concentration at 6 h [8]: 1400 nM | concentration at 8.033 h [8]: 1580 nM | concentration at 24 h [8]: 152 nM | concentration at 47.517 h (human, plasma, oral, 1000 mg, Patient 20, Fed, sample time 47.517): 55.4 nM | concentration at 71.333 h (human, plasma, oral, 1000 mg, Patient 20, Fed, sample time 71.333): 25.3 nM | clearance [9]: 6610 mL/min | Vd/F [9]: 7190 L | clearance [10]: 6180 mL/min | Vd/F [10]: 5180 L | AUC(0-inf) [11]: 7.21 µM·h | AUC(0-t) [11]: 6.93 µM·h | Cmax [11]: 648 nM | Tmax [11]: 2.17 h | concentration at 1 h (human, plasma, oral, 1000 mg, Patient 21, Fasted, sample time 1.000): 414 nM | concentration at 2.167 h (human, plasma, oral, 1000 mg, Patient 21, Fasted, sample time 2.167): 648 nM | concentration at 4.15 h (human, plasma, oral, 1000 mg, Patient 21, Fasted, sample time 4.150): 360 nM | concentration at 6.117 h (human, plasma, oral, 1000 mg, Patient 21, Fasted, sample time 6.117): 396 nM | concentration at 8.05 h (human, plasma, oral, 1000 mg, Patient 21, Fasted, sample time 8.050): 231 nM | concentration at 24.333 h (human, plasma, oral, 1000 mg, Patient 21, Fasted, sample time 24.333): 65.5 nM | concentration at 48.083 h [11]: 16.4 nM | concentration at 71.7 h (human, plasma, oral, 1000 mg, Patient 21, Fasted, sample time 71.700): 15.2 nM | AUC(0-inf) [12]: 7.71 µM·h | AUC(0-t) [12]: 7.45 µM·h | Cmax [12]: 1280 nM | Tmax [12]: 6 h | concentration at 1.167 h (human, plasma, oral, 1000 mg, Patient 21, Fed, sample time 1.167): 17.3 nM | concentration at 2 h [12]: 64.3 nM | concentration at 4 h [12]: 102 nM | concentration at 6 h [12]: 1280 nM | concentration at 8.033 h [12]: 372 nM | concentration at 24 h [12]: 49.3 nM | concentration at 48.083 h [12]: 18.9 nM | AUC(0-inf) [13]: 5.32 µM·h | AUC(0-t) [13]: 5.03 µM·h | Cmax [13]: 659 nM | Tmax [13]: 3.09 h | Vd/F [13]: 10100 L | AUC(0-inf) [14]: 12.4 µM·h | AUC(0-t) [14]: 12.1 µM·h | Cmax [14]: 1400 nM | Tmax [14]: 5.21 h | Vd/F [14]: 3800 L | Cl F obs [15]: 861.6 L/h | HL [15]: 9.9 h | Cl F obs [16]: 260.2 L/h | HL [16]: 10.9 h | effect of food on drug levels (patient 21): negligible | difference in mean drug levels between the dosing regimes (fed vs fasted) (previously (before extended cohort)): up to a four fold difference
